#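 Dose response: 5 concentrations. Exposure: 48 h. Format: 96-well plates. Endpoint: linear interpolation; highest concentration if not reached. Here, GI50 denotes the concentration required for 50% inhibition of growth. TGI: total growth inhibition.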
# Experiments:
# Assay in all cases: NCI-60 cell line screen, 48 h
# HL-60(TB) leukemia = system: HL-60(TB) leukemia
# HCT-15 colon = system: HCT-15 colon
# NCI-H23 lung = system: NCI-H23 lung
# CAKI-1 renal = system: CAKI-1 renal
# SK-MEL-5 melanoma = system: SK-MEL-5 melanoma
# OVCAR-8 ovarian = system: OVCAR-8 ovarian
# SF-268 CNS = system: SF-268 CNS
# SN12C renal = system: SN12C renal
# UACC-257 melanoma = system: UACC-257 melanoma
# CCRF-CEM leukemia = system: CCRF-CEM leukemia
# COLO 205 colon = system: COLO 205 colon
# OVCAR-3 ovarian = system: OVCAR-3 ovarian
# MALME-3M melanoma = system: MALME-3M melanoma
# DU-145 prostate = system: DU-145 prostate
# A498 renal = system: A498 renal
# NCI-H460 lung = system: NCI-H460 lung
# SK-OV-3 ovarian = system: SK-OV-3 ovarian
# UACC-62 melanoma = system: UACC-62 melanoma
# UO-31 renal = system: UO-31 renal
# K-562 leukemia = system: K-562 leukemia
# EKVX NSCLC = system: EKVX NSCLC
# A549 NSCLC = system: A549 NSCLC
# SK-MEL-2 melanoma = system: SK-MEL-2 melanoma
# NCI-H226 lung = system: NCI-H226 lung
# 786-0 renal = system: 786-0 renal
# SF-539 CNS = system: SF-539 CNS
# SK-MEL-28 melanoma = system: SK-MEL-28 melanoma
# MCF7 breast = system: MCF7 breast
# NCI/ADR-RES ovarian = system: NCI/ADR-RES ovarian
# KM12 colon = system: KM12 colon
# LOX IMVI melanoma = system: LOX IMVI melanoma
# SF-295 CNS = system: SF-295 CNS
# MDA-MB-435 = system: MDA-MB-435
# MDA-MB-231 breast = system: MDA-MB-231 breast
# HT29 colon = system: HT29 colon
# RXF 393 renal = system: RXF 393 renal
# IGROV1 ovarian = system: IGROV1 ovarian
# MOLT-4 leukemia = system: MOLT-4 leukemia
# HOP-62 NSCLC = system: HOP-62 NSCLC
# M14 melanoma = system: M14 melanoma
# HCT-116 colon = system: HCT-116 colon
# SW-620 colon = system: SW-620 colon
# U251 CNS = system: U251 CNS
# HS 578T breast = system: HS 578T breast
# T-47D breast = system: T-47D breast
# OVCAR-5 ovarian = system: OVCAR-5 ovarian
# SR leukemia = system: SR leukemia
# BT-549 breast = system: BT-549 breast
# PC-3 prostate = system: PC-3 prostate
# ACHN renal = system: ACHN renal
# SNB-75 CNS = system: SNB-75 CNS
# OVCAR-4 ovarian = system: OVCAR-4 ovarian
# HCC-2998 colon = system: HCC-2998 colon
# NCI-H522 lung = system: NCI-H522 lung
# SNB-19 CNS = system: SNB-19 CNS
# RPMI-8226 leukemia = system: RPMI-8226 leukemia
# TK-10 renal = system: TK-10 renal
# HOP-92 NSCLC = system: HOP-92 NSCLC
smiles,measurement,setting,value
CN(Cc1cccc2ccccc12)Cc1cccc2ccccc12,TGI,HL-60(TB) leukemia,33.4 µM
same,TGI,HCT-15 colon,> 100 µM
same,TGI,NCI-H23 lung,> 100 µM
same,TGI,CAKI-1 renal,> 100 µM
same,TGI,SK-MEL-5 melanoma,33.6 µM
same,TGI,OVCAR-8 ovarian,> 100 µM
same,TGI,SF-268 CNS,> 100 µM
same,TGI,SN12C renal,> 100 µM
same,TGI,UACC-257 melanoma,> 100 µM
same,TGI,CCRF-CEM leukemia,34 µM
same,TGI,COLO 205 colon,35.2 µM
same,TGI,OVCAR-3 ovarian,> 100 µM
same,TGI,MALME-3M melanoma,63.4 µM
same,TGI,DU-145 prostate,> 100 µM
same,TGI,A498 renal,80.1 µM
same,TGI,NCI-H460 lung,> 100 µM
same,TGI,SK-OV-3 ovarian,> 100 µM
same,TGI,UACC-62 melanoma,> 100 µM
same,TGI,UO-31 renal,> 100 µM
same,TGI,K-562 leukemia,> 100 µM
same,TGI,EKVX NSCLC,> 100 µM
same,TGI,A549 NSCLC,> 100 µM
same,TGI,SK-MEL-2 melanoma,31 µM
same,TGI,NCI-H226 lung,86.4 µM
same,TGI,786-0 renal,> 100 µM
same,TGI,SF-539 CNS,59.6 µM
same,TGI,SK-MEL-28 melanoma,> 100 µM
same,TGI,MCF7 breast,45 µM
same,TGI,NCI/ADR-RES ovarian,> 100 µM
same,TGI,KM12 colon,> 100 µM
same,TGI,LOX IMVI melanoma,> 100 µM
same,TGI,SF-295 CNS,> 100 µM
same,TGI,MDA-MB-435,> 100 µM
same,TGI,MDA-MB-231 breast,64.1 µM
same,TGI,HT29 colon,> 100 µM
same,TGI,RXF 393 renal,> 100 µM
same,TGI,IGROV1 ovarian,> 100 µM
same,TGI,MOLT-4 leukemia,35 µM
same,TGI,HOP-62 NSCLC,> 100 µM
same,TGI,M14 melanoma,74.3 µM
same,TGI,HCT-116 colon,55.8 µM
same,TGI,SW-620 colon,57.9 µM
same,TGI,U251 CNS,49.6 µM
same,TGI,HS 578T breast,> 100 µM
same,TGI,T-47D breast,72.2 µM
same,TGI,OVCAR-5 ovarian,> 100 µM
same,TGI,SR leukemia,90.8 µM
same,TGI,BT-549 breast,> 100 µM
same,TGI,PC-3 prostate,57.7 µM
same,TGI,ACHN renal,> 100 µM
same,TGI,SNB-75 CNS,> 100 µM
same,TGI,OVCAR-4 ovarian,> 100 µM
same,TGI,HCC-2998 colon,57.9 µM
same,TGI,NCI-H522 lung,45.4 µM
same,TGI,SNB-19 CNS,> 100 µM
same,TGI,RPMI-8226 leukemia,50.1 µM
same,TGI,TK-10 renal,> 100 µM
O=S(=O)(c1cccc2c(Cl)cccc12)N1CCCNCC1,GI50,HCT-15 colon,14.5 µM
same,TGI,HCT-15 colon,27.5 µM
same,GI50,NCI-H23 lung,13.8 µM
same,TGI,NCI-H23 lung,27.1 µM
same,GI50,CAKI-1 renal,17.3 µM
same,TGI,CAKI-1 renal,32.6 µM
same,GI50,SK-MEL-5 melanoma,13.6 µM
same,TGI,SK-MEL-5 melanoma,26.5 µM
same,GI50,OVCAR-8 ovarian,14.1 µM
same,TGI,OVCAR-8 ovarian,31.4 µM
same,GI50,SF-268 CNS,21.8 µM
same,TGI,SF-268 CNS,52.9 µM
same,GI50,SN12C renal,12.2 µM
same,TGI,SN12C renal,24.6 µM
same,GI50,UACC-257 melanoma,10.1 µM
same,TGI,UACC-257 melanoma,22.8 µM
same,GI50,CCRF-CEM leukemia,15.1 µM
same,TGI,CCRF-CEM leukemia,28.4 µM
same,GI50,COLO 205 colon,16.4 µM
same,TGI,COLO 205 colon,35.4 µM
same,GI50,OVCAR-3 ovarian,14.6 µM
same,TGI,OVCAR-3 ovarian,29.4 µM
same,GI50,HOP-92 NSCLC,11 µM
same,TGI,HOP-92 NSCLC,25.8 µM
same,GI50,DU-145 prostate,17.1 µM
same,TGI,DU-145 prostate,32.1 µM
same,GI50,A498 renal,17.9 µM
same,TGI,A498 renal,32.5 µM
same,GI50,NCI-H460 lung,19.4 µM
same,TGI,NCI-H460 lung,47 µM
same,GI50,SK-OV-3 ovarian,15.7 µM
same,TGI,SK-OV-3 ovarian,29.1 µM
same,GI50,UACC-62 melanoma,13.6 µM
same,TGI,UACC-62 melanoma,26.5 µM
same,GI50,UO-31 renal,14.1 µM
same,TGI,UO-31 renal,28.5 µM
same,GI50,K-562 leukemia,12.7 µM
same,TGI,K-562 leukemia,25.3 µM
same,GI50,EKVX NSCLC,19.9 µM
same,TGI,EKVX NSCLC,35.9 µM
same,GI50,A549 NSCLC,14 µM
same,TGI,A549 NSCLC,28.2 µM
same,GI50,SK-MEL-2 melanoma,17.6 µM
same,TGI,SK-MEL-2 melanoma,34.3 µM
same,GI50,NCI-H226 lung,11.8 µM
same,TGI,NCI-H226 lung,25.3 µM
same,GI50,786-0 renal,11.1 µM
same,TGI,786-0 renal,23.1 µM
same,GI50,SF-539 CNS,19.4 µM
same,TGI,SF-539 CNS,37.7 µM
same,GI50,SK-MEL-28 melanoma,10.8 µM
same,TGI,SK-MEL-28 melanoma,22.7 µM
same,GI50,MCF7 breast,24.5 µM
same,TGI,MCF7 breast,50.8 µM
same,GI50,NCI/ADR-RES ovarian,13.7 µM
same,TGI,NCI/ADR-RES ovarian,26.6 µM
same,GI50,KM12 colon,15 µM
same,TGI,KM12 colon,28.2 µM
same,GI50,LOX IMVI melanoma,13.4 µM
same,TGI,LOX IMVI melanoma,26.3 µM
same,GI50,SF-295 CNS,17.7 µM
same,TGI,SF-295 CNS,34.5 µM
same,GI50,MDA-MB-435,14.9 µM
same,TGI,MDA-MB-435,28.6 µM
same,GI50,MDA-MB-231 breast,5.49 µM
same,TGI,MDA-MB-231 breast,19.3 µM
same,GI50,HT29 colon,3.62 µM
same,TGI,HT29 colon,18.1 µM
same,GI50,RXF 393 renal,2.88 µM
same,TGI,RXF 393 renal,22.4 µM
same,GI50,IGROV1 ovarian,18.6 µM
same,TGI,IGROV1 ovarian,34.6 µM
same,GI50,MOLT-4 leukemia,12.8 µM
same,TGI,MOLT-4 leukemia,26 µM
same,GI50,HOP-62 NSCLC,11.2 µM
same,TGI,HOP-62 NSCLC,23.3 µM
same,GI50,M14 melanoma,12.4 µM
same,TGI,M14 melanoma,24.9 µM
same,GI50,HCT-116 colon,10.3 µM
same,TGI,HCT-116 colon,21.9 µM
same,GI50,SW-620 colon,17.9 µM
same,TGI,SW-620 colon,31.8 µM
same,GI50,U251 CNS,14.6 µM
same,TGI,U251 CNS,27.7 µM
same,GI50,HS 578T breast,21.4 µM
same,TGI,HS 578T breast,45.4 µM
same,GI50,T-47D breast,11.7 µM
same,TGI,T-47D breast,29.4 µM
same,GI50,OVCAR-5 ovarian,11.5 µM
same,TGI,OVCAR-5 ovarian,23.6 µM
same,GI50,BT-549 breast,19.8 µM
same,TGI,BT-549 breast,36.4 µM
same,GI50,PC-3 prostate,13.8 µM
same,TGI,PC-3 prostate,26.8 µM
same,GI50,ACHN renal,14.4 µM
same,TGI,ACHN renal,27.4 µM
same,GI50,OVCAR-4 ovarian,11.2 µM
same,TGI,OVCAR-4 ovarian,24.3 µM
same,GI50,NCI-H522 lung,19.7 µM
same,TGI,NCI-H522 lung,37.1 µM
same,GI50,SNB-19 CNS,16.3 µM
same,TGI,SNB-19 CNS,30.5 µM
same,GI50,RPMI-8226 leukemia,13.9 µM
same,TGI,RPMI-8226 leukemia,32.7 µM
same,GI50,TK-10 renal,13 µM
same,TGI,TK-10 renal,25.8 µM

# From PubChem BioAssay (NCI)
